Experimental data: patent publication US20250162994A1, “DUAL LSD1/HDAC INHIBITORS” (JUBILANT EPICORE LLC, priority 2022, published 2025)
pIC50: −log10 of the molar value. Structures can show the parent of a compound that is named as a salt.

Key:
Format in all cases: biochemical
LSD1 = LSD1 (Homo sapiens (Human), UniProt O60341); assay: TR-FRET assay for LSD1 (Perkin Elmer)
Experimental: LSD1 enzyme was produced in house. Tranylcypromine (TCP), LSD1 inhibitor was procured from Selleckchem. LSD1 enzyme, TCP and Biotinylated peptide substrate were diluted in assay buffer just before use. 2× inhibitor (10 μL, diluted in assay buffer) or Assay Buffer, and 5 nM enzyme were added to a 96 well plate and incubated at room temperature for 30 min. […] Stop Solution containing 300 μM tranylcypromine in 1×LANCE Detection Buffer was added to the wells and incubated for 5 min at RT. Then, Detection mixture containing 2 nM Eu-Ab and 50 nM ULight-Streptavidin in 1×LANCE Detection Buffer was prepared and added to the reaction mixture. This mixture was incubated for 1 hour at room temperature.

HDAC1 = HDAC1 (Homo sapiens (Human), UniProt Q13547); assay: Histone deacetylase assay (BPS Biosciences), HDAC1; conditions: human recombinant enzyme
Experimental: Histone deacetylase assay was done as per manufacturer's instructions. Briefly, assay buffer, 200 uM HDAC substrate (fluorogenic HDAC acetylated peptide substrate for class I HDACs (HDACs 1, 2 and 3) and class 2b HDACs (HDACs 6 and 10) and 1% BSA are taken as a master mixture and aliquoted as 40 uL per well. Compounds (10×) were diluted in assay buffer and were added to respective wells of a black 96 well plate. For HDAC1 (1.4 ng/μL) and for HDAC6 (7 ng/μL) human recombinant enzyme was thawed on ice and 5 μL of respective enzyme was added per well. The plate was incubated at 37° C. for 1 hour. Developer solution was then added (50 μL per well) and incubated at room temperature for 10 minutes. Fluorescence was measured at an excitation wavelength of 350-380 nm and emission wavelength of 440-480 nm.

HDAC6 = HDAC6 (Homo sapiens (Human), UniProt Q9UBN7); assay: Histone deacetylase assay (BPS Biosciences), HDAC6; conditions: human recombinant enzyme
Experimental: Histone deacetylase assay was done as per manufacturer's instructions. […] Fluorescence was measured at an excitation wavelength of 350-380 nm and emission wavelength of 440-480 nm.

Chain of HDAC1 (Q13547 whole entry): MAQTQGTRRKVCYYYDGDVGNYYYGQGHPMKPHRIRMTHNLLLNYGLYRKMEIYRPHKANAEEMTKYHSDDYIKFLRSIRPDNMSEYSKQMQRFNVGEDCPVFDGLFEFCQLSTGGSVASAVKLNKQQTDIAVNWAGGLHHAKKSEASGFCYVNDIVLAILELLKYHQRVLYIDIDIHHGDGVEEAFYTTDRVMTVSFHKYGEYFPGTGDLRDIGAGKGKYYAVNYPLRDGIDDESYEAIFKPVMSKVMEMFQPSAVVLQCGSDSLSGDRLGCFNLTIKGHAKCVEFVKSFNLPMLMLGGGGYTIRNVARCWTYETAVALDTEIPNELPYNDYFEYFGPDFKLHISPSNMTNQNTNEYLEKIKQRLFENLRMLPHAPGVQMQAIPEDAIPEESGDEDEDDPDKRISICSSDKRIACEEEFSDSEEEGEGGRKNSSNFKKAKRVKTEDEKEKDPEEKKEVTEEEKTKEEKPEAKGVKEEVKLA
Chain of HDAC6 (Q9UBN7 whole entry): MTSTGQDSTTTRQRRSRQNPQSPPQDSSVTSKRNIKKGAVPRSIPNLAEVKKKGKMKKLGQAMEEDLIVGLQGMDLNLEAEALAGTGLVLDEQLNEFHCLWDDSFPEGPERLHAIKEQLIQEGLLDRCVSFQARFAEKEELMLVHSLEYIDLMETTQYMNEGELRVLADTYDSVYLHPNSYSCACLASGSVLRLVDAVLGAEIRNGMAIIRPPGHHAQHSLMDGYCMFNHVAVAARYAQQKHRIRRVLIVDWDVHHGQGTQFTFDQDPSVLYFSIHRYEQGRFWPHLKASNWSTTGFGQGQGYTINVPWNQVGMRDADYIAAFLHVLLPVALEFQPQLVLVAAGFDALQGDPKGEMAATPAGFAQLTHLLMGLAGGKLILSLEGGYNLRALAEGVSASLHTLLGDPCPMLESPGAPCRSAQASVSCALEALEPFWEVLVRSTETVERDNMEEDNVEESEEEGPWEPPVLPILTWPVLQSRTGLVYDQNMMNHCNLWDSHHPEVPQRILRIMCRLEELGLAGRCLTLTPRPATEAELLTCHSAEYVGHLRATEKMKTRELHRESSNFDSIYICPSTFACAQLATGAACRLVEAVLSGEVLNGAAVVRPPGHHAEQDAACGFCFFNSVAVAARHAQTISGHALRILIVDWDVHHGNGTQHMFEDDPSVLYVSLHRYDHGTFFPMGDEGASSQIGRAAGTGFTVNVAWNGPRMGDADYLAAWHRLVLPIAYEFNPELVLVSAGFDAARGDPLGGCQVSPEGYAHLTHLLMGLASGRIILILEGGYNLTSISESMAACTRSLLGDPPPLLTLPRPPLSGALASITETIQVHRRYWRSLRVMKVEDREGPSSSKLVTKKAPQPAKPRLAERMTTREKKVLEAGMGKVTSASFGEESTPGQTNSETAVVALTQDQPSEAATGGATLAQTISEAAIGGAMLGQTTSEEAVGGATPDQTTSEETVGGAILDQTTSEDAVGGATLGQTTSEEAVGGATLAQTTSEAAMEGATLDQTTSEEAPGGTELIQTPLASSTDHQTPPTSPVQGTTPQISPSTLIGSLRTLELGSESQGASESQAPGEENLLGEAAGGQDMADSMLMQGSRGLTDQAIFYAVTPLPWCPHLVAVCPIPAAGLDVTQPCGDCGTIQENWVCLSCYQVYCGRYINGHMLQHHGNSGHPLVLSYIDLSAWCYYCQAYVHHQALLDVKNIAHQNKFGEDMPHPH

SMILES: Nc1ccccc1NC(=O)c1ccc(CCCN2CCC(CN[C@H]3C[C@@H]3c3cnn(-c4ccccc4)c3)CC2)cc1 [Compound 24, N-(2-aminophenyl)-4-(3-(4-((((1S,2R)-2-(1-phenyl-1H-pyrazol-4-yl)cyclopropyl)amino)methyl)piperidin-1-yl)propyl)benzamide]
- pIC50 (LSD1): 8.22
- pIC50 (HDAC1): 5.07

SMILES: O=C(NO)c1ccc(/C=C/C(=O)N2CC(CN[C@H]3C[C@@H]3c3ccc(F)cc3)C2)cc1 [Compound 6, 4-((E)-3-(3-((((1S,2R)-2-(4-fluorophenyl)cyclopropyl)amino)methyl)azetidin-1-yl)-3-oxoprop-1-en-1-yl)-N-hydroxybenzamide]
- pIC50 (LSD1): 6.83
- pIC50 (HDAC6): 6.84

SMILES: Cc1noc(C)c1-c1ccc([C@@H]2C[C@H]2NCC2CCN(Cc3ccc(C(=O)Nc4ccccc4N)cc3)CC2)cc1 [Compound 27, N-(2-aminophenyl)-4-((4-((((1R,2S)-2-(4-(3,5-dimethylisoxazol-4-yl)phenyl)cyclopropyl)amino)methyl)piperidin-1-yl)methyl)benzamide]
- pIC50 (LSD1): 8.22

SMILES: O=C(NO)c1ccc(Cn2cc(CN[C@@H]3C[C@H]3c3ccccc3)cn2)cc1 [Compound 1, N-hydroxy-4-((4-((((1R,2S)-2-phenylcyclopropyl)amino)methyl)-1H-pyrazol-1-yl)methyl)benzamide hydrobromide]
- pIC50 (HDAC1): 6.03

SMILES: CN1C(=O)C(C)(C)c2cc([C@H]3C[C@@H]3NCC3CCN(CCCc4ccc(C(=O)NO)cc4)CC3)ccc21 [Compound 10, N-hydroxy-4-(3-(4-((((1S,2R)-2-(1,3,3-trimethyl-2-oxoindolin-5-yl)cyclopropyl)amino)methyl)piperidin-1-yl)propyl)benzamide]
- pIC50 (LSD1): 5.92
- pIC50 (HDAC6): 6.87

SMILES: CC(C)n1cc([C@@H]2C[C@H]2NCC2CCN(CCCc3ccc(C(=O)Nc4ccccc4N)cc3)CC2)cn1 [Compound 17, N-(2-aminophenyl)-4-(3-(4-((((1R,2S)-2-(1-isopropyl-1H-pyrazol-4-yl)cyclopropyl)amino)methyl)piperidin-1-yl)propyl)benzamide]
- pIC50 (LSD1): 7.00
- pIC50 (HDAC1): 5.98

SMILES: O=C(NO)c1ccc(CCCN2CCC(CN[C@@H]3C[C@H]3c3ccc(-c4cncnc4)cc3)CC2)cc1 [Compound 7, N-hydroxy-4-(3-(4-((((1R,2S)-2-(4-(pyrimidin-5-yl)phenyl)cyclopropyl)amino)methyl)piperidin-1-yl)propyl)benzamide]
- pIC50 (LSD1): 8.22
- pIC50 (HDAC6): 6.82
- pIC50 (HDAC1): 5.34

SMILES: Nc1ccccc1NC(=O)c1ccc(Cn2cc(CN[C@@H]3C[C@H]3c3ccc(F)cc3)nn2)cc1 [Compound 21, N-(2-aminophenyl)-4-((4-((((1R,2S)-2-(4-fluorophenyl)cyclopropyl)amino)methyl)-1H-1,2,3-triazol-1-yl)methyl)benzamide]
- pIC50 (LSD1): 7.16

SMILES: O=C(NO)c1ccc(CCCN2CCC(CN[C@@H]3C[C@H]3c3cnn(-c4ccccc4)c3)CC2)cc1 [Compound 3, N-hydroxy-4-(3-(4-((((1R,2S)-2-(1-phenyl-1H-pyrazol-4-yl)cyclopropyl)amino)methyl)piperidin-1-yl)propyl)benzamide]
- pIC50 (LSD1): 8.05
- pIC50 (HDAC6): 7.06

SMILES: Nc1ccccc1NC(=O)c1ccc(Cn2cc(CN[C@H]3C[C@@H]3c3ccc(F)cc3)nn2)cc1 [Compound 22, N-(2-aminophenyl)-4-((4-((((1S,2R)-2-(4-fluorophenyl)cyclopropyl)amino)methyl)-1H-1,2,3-triazol-1-yl)methyl)benzamide]
- pIC50 (LSD1): 6.07

SMILES: Cn1cc(-c2ccc([C@@H]3C[C@H]3NCC3CCN(Cc4ccc(C(=O)Nc5ccccc5N)cc4)CC3)cc2)ccc1=O [Compound 19, N-(2-aminophenyl)-4-((4-((((1R,2S)-2-(4-(1-methyl-6-oxo-1,6-dihydropyridin-3-yl)phenyl)cyclopropyl)amino)methyl)piperidin-1-yl)methyl)benzamide]
- pIC50 (LSD1): 8.22

SMILES: O=C(NO)c1ccc(CCCN2CCC(CN[C@H]3C[C@@H]3c3cnn(-c4ccccc4)c3)CC2)cc1 [Compound 4, N-hydroxy-4-(3-(4-((((1S,2R)-2-(1-phenyl-1H-pyrazol-4-yl)cyclopropyl)amino)methyl)piperidin-1-yl)propyl)benzamide]
- pIC50 (LSD1): 8.30
- pIC50 (HDAC6): 7.14

SMILES: CN1C(=O)C(C)(C)c2cc([C@@H]3C[C@H]3NCC3CCN(CCCc4ccc(C(=O)NO)cc4)CC3)ccc21 [Compound 9, N-hydroxy-4-(3-(4-((((1R,2S)-2-(1,3,3-trimethyl-2-oxoindolin-5-yl)cyclopropyl)amino)methyl)piperidin-1-yl)propyl)benzamide]
- pIC50 (LSD1): 6.39
- pIC50 (HDAC6): 6.72

SMILES: O=C(NO)c1ccc(/C=C/C(=O)N2CC(CN[C@@H]3C[C@H]3c3ccc(F)cc3)C2)cc1 [Compound 5, 4-((E)-3-(3-((((1R,2S)-2-(4-fluorophenyl)cyclopropyl)amino)methyl)azetidin-1-yl)-3-oxoprop-1-en-1-yl)-N-hydroxybenzamide]
- pIC50 (LSD1): 7.51
- pIC50 (HDAC6): 7.08

SMILES: Nc1ccccc1NC(=O)c1ccc(CCCN2CCC(CN[C@@H]3C[C@H]3c3ccc(F)cc3)CC2)cc1 [Compound 15, N-(2-aminophenyl)-4-(3-(4-((((1R,2S)-2-(4-fluorophenyl)cyclopropyl)amino)methyl)piperidin-1-yl)propyl)benzamide]
- pIC50 (HDAC1): 5.11

SMILES: CC(C)n1cc([C@H]2C[C@@H]2NCC2CCN(CCCc3ccc(C(=O)Nc4ccccc4N)cc3)CC2)cn1 [Compound 18, N-(2-aminophenyl)-4-(3-(4-((((1S,2R)-2-(1-isopropyl-1H-pyrazol-4-yl)cyclopropyl)amino)methyl)piperidin-1-yl)propyl)benzamide]
- pIC50 (LSD1): 6.86
- pIC50 (HDAC1): 5.54

SMILES: Nc1ccccc1NC(=O)c1ccc(CCCN2CCC(CN[C@@H]3C[C@H]3c3cnn(-c4ccccc4)c3)CC2)cc1 [Compound 23, N-(2-aminophenyl)-4-(3-(4-((((1R,2S)-2-(1-phenyl-1H-pyrazol-4-yl)cyclopropyl)amino)methyl)piperidin-1-yl)propyl)benzamide]
- pIC50 (LSD1): 8.00
- pIC50 (HDAC1): 6.58

SMILES: Nc1ccccc1NC(=O)c1ccc(CCCN2CCC(CN[C@H]3C[C@@H]3c3ccc(F)cc3)CC2)cc1 [Compound 16, N-(2-aminophenyl)-4-(3-(4-((((1S,2R)-2-(4-fluorophenyl)cyclopropyl)amino)methyl)piperidin-1-yl)propyl)benzamide]
- pIC50 (HDAC1): 6.53

SMILES: Cc1noc(C)c1-c1ccc([C@H]2C[C@@H]2NCC2CCN(Cc3ccc(C(=O)Nc4ccccc4N)cc3)CC2)cc1 [Compound 28, N-(2-aminophenyl)-4-((4-((((1S,2R)-2-(4-(3,5-dimethylisoxazol-4-yl)phenyl)cyclopropyl)amino)methyl)piperidin-1-yl)methyl)benzamide]
- pIC50 (LSD1): 7.54

SMILES: Cn1cc(-c2ccc([C@H]3C[C@@H]3NCC3CCN(Cc4ccc(C(=O)Nc5ccccc5N)cc4)CC3)cc2)ccc1=O [Compound 20, N-(2-aminophenyl)-4-((4-((((1S,2R)-2-(4-(1-methyl-6-oxo-1,6-dihydropvridin-3-yl)phenyl)cyclopropyl)amino)methyl)piperidin-1-yl)methyl)benzamide]
- pIC50 (LSD1): 7.70

SMILES: Nc1ccccc1NC(=O)c1ccc(Cn2cc(CN[C@@H]3C[C@H]3c3ccccc3)nn2)cc1 [Compound 29, N-(2-aminophenyl)-4-((4-((((1R,2S)-2-phenylcyclopropyl)amino)methyl)-1H-1,2,3-triazol-1-yl)methyl)benzamide]
- pIC50 (LSD1): 6.17

SMILES: O=C(NO)c1ccc(CCCN2CCC(CN[C@H]3C[C@@H]3c3ccc(-c4cncnc4)cc3)CC2)cc1 [Compound 8, N-hydroxy-4-(3-(4-((((1S,2R)-2-(4-(pyrimidin-5-yl)phenyl)cyclopropyl)amino)methyl)piperidin-1-yl)propyl)benzamide]
- pIC50 (LSD1): 8.10
- pIC50 (HDAC6): 6.80
- pIC50 (HDAC1): 5.61

SMILES: O=C(NO)c1ccc(Cn2cc(CN[C@H]3C[C@@H]3c3ccccc3)cn2)cc1 [Compound 2, N-hydroxy-4-((4-((((1S,2R)-2-phenylcyclopropyl)amino)methyl)-1H-pyrazol-1-yl)methyl)benzamide]
- pIC50 (HDAC1): 5.81

SMILES: Nc1ccccc1NC(=O)c1ccc(Cn2cc(CN[C@@H]3C[C@H]3c3ccccc3)cn2)cc1 [Compound 30, N-(2-aminophenyl)-4-((4-((((1R,2S)-2-phenylcyclopropyl)amino)methyl)-1H-pyrazol-1-yl)methyl)benzamide]
- pIC50 (LSD1): 7.57
- pIC50 (HDAC6): < 5.00
- pIC50 (HDAC1): 6.74

SMILES: Nc1ccccc1NC(=O)c1ccc(CCCN2CCC(CN[C@H]3C[C@@H]3c3ccc(F)c(F)c3)CC2)cc1 [Compound 26, N-(2-aminophenyl)-4-(3-(4-((((1S,2R)-2-(3,4-difluorophenyl)cyclopropyl)amino)methyl)piperidin-1-yl)propyl)benzamide]
- pIC50 (HDAC6): < 5.00
